In the assay the target is Receptor-type tyrosine-protein phosphatase eta (Homo sapiens) (UniProt Q12913). In words: PTPRJ phosphatase inhibitors, biochemical, human, DiFMUP fluorescence (AID 403). As to conditions: recombinant PTPRJ, 25 C, at 50 µM, enzyme 0.05 ng/mL, DTT 5 mM, active compounds read high.

For orientation: inhibition means how much of the control response was suppressed.

Chain of Receptor-type tyrosine-protein phosphatase eta (Homo sapiens) (Q12913 whole entry, looked up): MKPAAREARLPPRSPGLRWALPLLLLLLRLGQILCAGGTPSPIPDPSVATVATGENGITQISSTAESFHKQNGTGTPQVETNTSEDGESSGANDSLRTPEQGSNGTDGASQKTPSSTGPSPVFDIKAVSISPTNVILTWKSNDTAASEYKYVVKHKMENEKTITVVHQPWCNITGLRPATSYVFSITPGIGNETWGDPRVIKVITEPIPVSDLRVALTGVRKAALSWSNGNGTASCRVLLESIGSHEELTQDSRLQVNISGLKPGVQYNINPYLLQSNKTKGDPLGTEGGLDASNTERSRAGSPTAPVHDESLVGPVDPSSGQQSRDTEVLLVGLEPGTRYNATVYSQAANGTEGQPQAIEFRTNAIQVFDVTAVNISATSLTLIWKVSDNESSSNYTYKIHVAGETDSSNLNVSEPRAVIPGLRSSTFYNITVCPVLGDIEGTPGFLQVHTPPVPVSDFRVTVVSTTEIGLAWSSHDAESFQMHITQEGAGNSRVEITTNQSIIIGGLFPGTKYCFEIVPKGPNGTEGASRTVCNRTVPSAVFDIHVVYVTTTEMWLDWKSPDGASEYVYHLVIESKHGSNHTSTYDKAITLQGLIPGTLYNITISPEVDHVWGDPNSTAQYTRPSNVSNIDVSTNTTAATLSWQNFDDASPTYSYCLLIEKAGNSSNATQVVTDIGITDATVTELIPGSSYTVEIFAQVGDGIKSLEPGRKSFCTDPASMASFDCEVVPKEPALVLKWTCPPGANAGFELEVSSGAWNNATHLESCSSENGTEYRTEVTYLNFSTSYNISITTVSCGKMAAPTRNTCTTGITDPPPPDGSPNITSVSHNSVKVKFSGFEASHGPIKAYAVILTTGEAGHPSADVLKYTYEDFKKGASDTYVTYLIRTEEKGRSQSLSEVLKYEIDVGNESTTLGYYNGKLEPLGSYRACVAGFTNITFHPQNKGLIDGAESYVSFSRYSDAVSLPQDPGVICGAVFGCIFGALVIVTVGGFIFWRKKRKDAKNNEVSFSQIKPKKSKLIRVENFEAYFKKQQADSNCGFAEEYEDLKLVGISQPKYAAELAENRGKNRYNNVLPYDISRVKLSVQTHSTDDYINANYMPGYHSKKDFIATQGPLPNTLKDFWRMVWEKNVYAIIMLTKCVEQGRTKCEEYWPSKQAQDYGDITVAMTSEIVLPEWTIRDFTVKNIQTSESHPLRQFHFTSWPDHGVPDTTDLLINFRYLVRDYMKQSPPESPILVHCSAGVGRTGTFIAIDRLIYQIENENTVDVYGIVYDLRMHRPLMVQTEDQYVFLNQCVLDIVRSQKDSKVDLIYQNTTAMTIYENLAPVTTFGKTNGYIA

As for `CN(N=O)c1ccc(O)c(O)c1`, the inhibition was 97%.
The value for `COc1ccc(-c2nc3cc(N=Cc4cc(C(=O)O)ccc4O)ccc3o2)cc1` was 67%; that for `Cc1ccc(N=Cc2cc(C(=O)O)ccc2O)c(O)c1` was 55%.
To `O=C1NC(=S)S/C1=C\C=C\c1ccc([N+](=O)[O-])o1` belongs 50%; to `OO.OO.[K+].[O]=[V].c1ccc(-c2ccccn2)nc1`, 98%; to `O=C(O)c1ccc([O-])cn1.OO.OO.[K+].[K+].[O]=[V]`, 99%.
As for `Cc1c(Cl)c(C)c([N+](=O)[O-])c(O)c1C=Nc1ccc(O)cc1C(=O)O`, the inhibition was 95%.
Turning to `[NH-]CO.[NH-]CO.[NH-]CO.[NH-]CO.[O]=[V][O][V]=[O]`, the inhibition is 100%.
To `O=C(O)c1ccc(O)cn1.OO.[O]=[V]` belongs 92%; to `O=C([O-])c1ccccn1.OO.OO.[K+].[K+].[O]=[V]`, 100%.
The value for `O=C(O)c1ccc(O)c(N2C(=O)Nc3ccccc3N2O)c1` was 82%.
To `O=C(O)c1ccc(O)c(C=Nc2ccc3oc(-c4ccccc4)nc3c2)c1` belongs 52%; to `CC(C)(c1ccc(NS(=O)(=O)C(F)(F)F)cc1)c1ccc(C(C)(C)c2ccc(NS(=O)(=O)C(F)(F)F)cc2)cc1`, 66%.

The values above are taken from PubChem BioAssay AID403 (SGCOxCompounds, 2006).
